# In publication PMC6811774, “Potent, selective, and subunit‐dependent activation of TRPC5 channels by a xanthine derivative” (British Journal of Pharmacology, 2019):
# Target: T1, TRPC4-SYFP2 (TRPC4:C4 channels) (Homo sapiens, UniProt Q9UBN4)
# T1 construct: expressed in transfected cells
# T1 sequence (Q9UBN4 1-893 isoform Q9UBN4-2): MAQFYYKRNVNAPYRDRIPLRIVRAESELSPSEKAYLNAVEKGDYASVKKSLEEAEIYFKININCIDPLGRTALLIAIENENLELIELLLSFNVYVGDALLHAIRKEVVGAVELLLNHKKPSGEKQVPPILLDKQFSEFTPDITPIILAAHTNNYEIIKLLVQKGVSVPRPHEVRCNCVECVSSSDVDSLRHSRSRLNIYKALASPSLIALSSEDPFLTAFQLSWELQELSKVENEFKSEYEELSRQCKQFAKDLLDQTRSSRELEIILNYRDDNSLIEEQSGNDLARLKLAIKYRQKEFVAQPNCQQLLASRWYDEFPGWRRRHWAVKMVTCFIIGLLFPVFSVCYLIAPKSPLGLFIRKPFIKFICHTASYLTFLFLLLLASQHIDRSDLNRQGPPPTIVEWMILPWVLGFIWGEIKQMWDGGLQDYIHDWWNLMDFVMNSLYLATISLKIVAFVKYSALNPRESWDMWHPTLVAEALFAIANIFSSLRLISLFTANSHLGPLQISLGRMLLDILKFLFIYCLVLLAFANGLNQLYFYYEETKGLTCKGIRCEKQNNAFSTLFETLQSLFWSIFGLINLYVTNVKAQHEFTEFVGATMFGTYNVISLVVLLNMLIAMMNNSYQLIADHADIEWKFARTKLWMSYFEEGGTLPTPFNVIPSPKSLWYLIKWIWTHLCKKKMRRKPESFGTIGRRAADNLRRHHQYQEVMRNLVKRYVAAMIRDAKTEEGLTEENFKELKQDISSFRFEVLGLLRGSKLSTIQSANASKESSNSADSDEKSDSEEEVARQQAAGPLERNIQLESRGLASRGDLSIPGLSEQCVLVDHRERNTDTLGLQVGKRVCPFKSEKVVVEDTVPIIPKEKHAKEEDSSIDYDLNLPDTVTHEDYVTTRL
# Test: [Ca2+]i measurement in (Tet+) HEK T-REx cells expressing hTRPC4-SYFP2
# Type: cell-based
# Description: To facilitate cloning of TRPC5‐SYFP2 and TRPC4‐SYFP2, a pcDNA™4/TO expression vector (ThermoFisher Scientific, Waltham, MA, USA), into which a four amino acid linker (ASAS) flanked by AgeI and SacII restriction sites had been introduced between EcoRI and XhoI restriction sites, was used (Naylor et al., 2016). Human TRPC4β was inserted between BamHI and AgeI restriction sites as described previously (Ludlow et al., 2017). Human TRPC5 (forward primer: 5′ GCTTGGTACCGCCACCATG 3′ and reverse primer: 5′ […] 3′) was inserted upstream of the linker between KpnI and AgeI restriction sites using hTRPC5/pcDNA™4/TO (Zeng et al., 2004) as a PCR template. Both constructs contained an N‐terminal Kozak sequence. SYFP2 was inserted downstream of the linker between SacII and XbaI restriction sites using pSYFP2‐C1 as a PCR template (forward primer, 5′ […] 3′; reverse primer, 5′ […] 3′). pSYFP2‐C1 was a gift from Dorus Gadella (Addgene plasmid #22878; http://n2t.net/addgene:22878; RRID:Addgene_22878; Kremers, Goedhart, van Munster, & Gadella, 2006). Plasmids were sequenced to verify identity.
# HEK T‐REx™ cell line was transfected with TRPC5‐SYFP2 or TRPC4‐SYFP2 using FuGENE® HD transfection reagent. After 48 hr, cells were put under antibiotic selection using 400 μg·ml^−1 zeocin and 10 μg·ml^−1 blasticidin S (Invivogen, San Diego, California, USA). Medium changes were carried out regularly to remove dead cells. HEK T‐REx cells expressing tetracycline‐inducible human TRPC5, TRPC4–C1, and TRPC5–C1 were created as described previously (Akbulut et al., 2015; Ludlow et al., 2017; Rubaiy, Ludlow, Henrot, et al., 2017). TRPC5–C1 and TRPC4–C1 concatemers allow expression of functional channels with defined 2:2 stoichiometry that display ion permeability and current–voltage relationships distinct from those of homomeric TRPC4:C4 or TRPC5:C5 channels and consistent with those obtained upon co‐expression of TRPC1 with TRPC4 or TRPC5 (Ludlow et al., 2017; Rubaiy, Ludlow, Bon, & Beech, 2017; Rubaiy, Ludlow, Henrot, et al., 2017). […]
smiles,measurement,setting,value
Cn1c(=O)n(CCCO)c(=O)c2c1nc(Oc1ccc(Cl)c(OC(F)(F)F)c1)n2Cc1ccc(Cl)cc1 [AM237],"Hill slope, inhibition of EA response",,−0.78
same,Effect of pretreatment on basal [Ca2+]i,0.3–300 nM AM237,did not affect
same,Activation upon acute administration ([Ca2+]i),3-300 nM AM237,lack of activation
